Data: patent US8993757B2, “N-piperidin-4-yl derivatives” (Merck Sharp & Dohme B.V., priority 2011, dated 2015)

Biological target: T1, human FSH receptor (Homo sapiens, UniProt P23945)
T1 construct: expressed in transfected cells; host or cells: CHO cells, cotransfected with a CRE/promotor firefly luciferase reporter
T1 sequence (P23945 18-695): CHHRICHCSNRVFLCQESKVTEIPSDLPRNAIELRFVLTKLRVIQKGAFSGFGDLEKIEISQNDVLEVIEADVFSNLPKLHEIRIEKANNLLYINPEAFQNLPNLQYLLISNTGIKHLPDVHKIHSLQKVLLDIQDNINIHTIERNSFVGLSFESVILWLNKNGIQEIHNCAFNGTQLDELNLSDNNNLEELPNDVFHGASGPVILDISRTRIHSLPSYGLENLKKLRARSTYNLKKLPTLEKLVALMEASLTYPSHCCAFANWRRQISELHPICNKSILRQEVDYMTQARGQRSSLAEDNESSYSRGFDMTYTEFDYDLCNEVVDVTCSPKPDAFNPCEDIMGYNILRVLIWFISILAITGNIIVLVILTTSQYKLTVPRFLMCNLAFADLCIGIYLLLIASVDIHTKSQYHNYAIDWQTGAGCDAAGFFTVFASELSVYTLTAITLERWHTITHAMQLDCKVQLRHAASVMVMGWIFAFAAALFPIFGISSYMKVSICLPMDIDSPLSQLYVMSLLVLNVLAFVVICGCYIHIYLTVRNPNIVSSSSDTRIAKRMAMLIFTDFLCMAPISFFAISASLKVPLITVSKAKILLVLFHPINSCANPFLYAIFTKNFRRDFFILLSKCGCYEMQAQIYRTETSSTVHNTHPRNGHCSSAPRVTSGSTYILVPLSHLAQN
Test: Antagonistic activity at the human FSH receptor expressed in CHO cells (CRE-luciferase reporter)
Format: cell-based
Conditions: CHO cells stably transfected with human FSH receptor and CRE/firefly luciferase reporter; 4 hours incubation; read-out: pIC50 (negative logarithm of the IC50 value) (converted)
Protocol: The FSHR antagonists of the invention have pIC50 values higher than 6 in said assay. The preferred compounds of the invention have pIC50 values higher than 8.
Antagonistic activity of the compounds at the human FSH receptor was determined in Chinese Hamster Ovary (CHO) cells stably transfected with the human FSH receptor and cotransfected with a cAMP responsive element (CRE)/promotor directing the expression of a firefly luciferase reporter gene. […] The cells (7,500 cells/well of a 384 well plate) were incubated in Dulbecco′ minimal essential F12 modified medium (Invitrogen), supplemented with 1 μg/ml bovine insulin, 5 μg/ml human apo-transferrin, 100 U/ml penicillin G and 100 μg/ml streptomycin with the test compounds (concentration between 0.316 nM and 10.0 μM) in duplicate together with […] (which, at this concentration in the absence of test compound, induces 80% of the maximal luciferase stimulation) in a humidified atmosphere (95%) at 5-7% CO2 and 37° C. The final concentration of DMSO was 1%. After 4 hours of incubation, plates were allowed to adjust to room temperature for 1 hour. Then, SteadyLite (Perkin Elmer) solution was added to the wells and cells were allowed to lyse for at least 1 hour at room temperature. Subsequently, luciferase activity was measured in a luminescence counter. The signal is expressed as counts per second (cps). The IC50 (concentration of test compound causing half-maximal (50%) inhibition of the maximally attainable inhibition of the luciferase stimulation by the compound) and efficacy of the compounds were determined using the software program MathIQ (version 2.3, ID Business Solutions Limited).

| Compound | IC50 [nM] |
| --- | --- |
| COc1cc(OCc2ccccc2)cc(C(=O)NCC2CCN(c3ccnc(-c4cccc(-n5cccn5)c4)n3)CC2)c1 [Example 11, N-((1-(2-(3-(1H-pyrazol-1-yl)phenyl)pyrimidin-4-yl)piperidin-4-yl)methyl)-3-(benzoxy)-5-methoxybenzamide] | 10 to 100 |
| COc1cc(OCc2ccccc2)cc(C(=O)NCC2CCN(c3ncnc(-c4cccc(-c5ccccn5)c4)n3)CC2)c1 [Example 12B, 3-(benzoxy)-5-methoxy-N-((1-(4-(3-(pyridin-2-yl)phenyl)-1,3,5-triazin-2-yl)piperidin-4-yl)methyl)benzamide] | 10 to 100 |
| COc1cc(OCc2ccc(F)cc2)cc(C(=O)NCC2CCN(c3ccnc(-c4cccc(-n5cccn5)c4)n3)CC2)c1 [Example 14, N-((1-(2-(3-(1H-pyrazol-1-yl)phenyl)pyrimidin-4-yl)piperidin-4-yl)methyl)-3-(4-fluorobenzoxy)-5-methoxybenzamide] | 10 to 100 |
| COc1cc(OCC2CC2)cc(C(=O)NCC2CCN(c3ccnc(-c4cccc(-n5cccn5)c4)n3)CC2)c1 [Example 15A, N-((1-(2-(3-(1H-pyrazol-1-yl)phenyl)pyrimidin-4-yl)piperidin-4-yl)methyl)-3-(cyclopropylmethoxy)-5-methoxybenzamide] | < 10 |
| COc1cc(OCc2cc(C)on2)cc(C(=O)NCC2CCN(c3ccnc(-c4cccc(-n5cccn5)c4)n3)CC2)c1 [Example 15B, N-((1-(2-(3-(1H-pyrazol-1-yl)phenyl)pyrimidin-4-yl)piperidin-4-yl)methyl)-3-methoxy-5-((5-methylisoxazol-3-yl)methoxy)benzamide] | < 10 |
| COc1cc(OCCCO)cc(C(=O)NCC2CCN(c3ccnc(-c4cccc(-n5cccn5)c4)n3)CC2)c1 [Example 15C, N-((1-(2-(3-(1H-pyrazol-1-yl)phenyl)pyrimidin-4-yl)piperidin-4-yl)methyl)-3-(3-hydroxypropoxy)-5-methoxybenzamide] | 10 to 100 |
| COCCOc1cc(OC)cc(C(=O)NCC2CCN(c3ccnc(-c4cccc(-n5cccn5)c4)n3)CC2)c1 [Example 15D, N-((1-(2-(3-(1H-pyrazol-1-yl)phenyl)pyrimidin-4-yl)piperidin-4-yl)methyl)-3-methoxy-5-(2-methoxyethoxy)benzamide] | 10 to 100 |
| COc1cc(OCC2CC2)cc(C(=O)NCC2CCN(c3ncnc(-c4cccc(-n5cccn5)c4)n3)CC2)c1 [Example 17A, N-((1-(4-(3-(1H-pyrazol-1-yl)phenyl)-1,3,5-triazin-2-yl)piperidin-4-yl)methyl)-3-(cyclopropylmethoxy)-5-methoxybenzamide] | < 10 |
| COc1cc(OCC2CCOCC2)cc(C(=O)NCC2CCN(c3ncnc(-c4cccc(-n5cccn5)c4)n3)CC2)c1 [Example 17B, N-((1-(4-(3-(1H-pyrazol-1-yl)phenyl)-1,3,5-triazin-2-yl)piperidin-4-yl)methyl)-3-methoxy-5-((tetrahydro-2H-pyran-4-yl)methoxy)benzamide] | 10 to 100 |
| COc1cc(OCc2ccoc2)cc(C(=O)NCC2CCN(c3ncnc(-c4cccc(-n5cccn5)c4)n3)CC2)c1 [Example 17C] | 10 to 100 |
| CNC(=O)COc1cc(OC)cc(C(=O)NCC2CCN(c3ncnc(-c4cccc(-n5cccn5)c4)n3)CC2)c1 [Example 17D, N-((1-(4-(3-(1H-pyrazol-1-yl)phenyl)-1,3,5-triazin-2-yl)piperidin-4-yl)methyl)-3-methoxy-5-(2-(methylamino)-2-oxoethoxy)benzamide] | 10 to 100 |
| COc1cc(OC)cc(C(=O)NCC2CCN(c3ccnc(-c4cccc(-c5ccn[nH]5)c4)n3)CC2)c1 [Example 18, N-((1-(2-(3-(1H-pyrazol-5-yl)phenyl)pyrimidin-4-yl)piperidin-4-yl)methyl)-3,5-dimethoxybenzamide] | 10 to 100 |
| COc1cc(OCC2CC2)cc(C(=O)NCC2CCN(c3nc(-c4cccc(C#N)c4)ncc3F)CC2)c1 [Example 19B, N-((1-(2-(3-cyanophenyl)-5-fluoropyrimidin-4-yl)piperidin-4-yl)methyl)-3-(cyclopropylmethoxy)-5-methoxybenzamide] | 10 to 100 |
| COc1cc(OCC2CC2)cc(C(=O)NCC2CCN(c3nc(-c4cccc(-c5ccn[nH]5)c4)ncc3F)CC2)c1 [Example 19C, N-((1-(2-(3-(1H-pyrazol-5-yl)phenyl)-5-fluoropyrimidin-4-yl)piperidin-4-yl)methyl)-3-(cyclopropylmethoxy)-5-methoxybenzamide] | < 10 |
| COc1cc(OCC2CC2)cc(C(=O)NCC2CCN(c3ccnc(-c4ccc5[nH]ncc5c4)n3)CC2)c1 [Example 19E, N-((1-(2-(1H-indazol-5-yl)pyrimidin-4-yl)piperidin-4-yl)methyl)-3-(cyclopropylmethoxy)-5-methoxybenzamide] | 10 to 100 |
| COC(=O)c1cnc(-c2cccc(-n3cccn3)c2)nc1N1CCC(CNC(=O)c2cc(OC)cc(OC)c2)CC1 [Example 21B, methyl 2-(3-(1H-pyrazol-1-yl)phenyl)-4-(4-((3,5-dimethoxybenzamido)methyl)piperidin-1-yl)pyrimidine-5-carboxylate] | 10 to 100 |
| COc1cc(OCCO)cc(C(=O)NCC2CCN(c3nc(-c4cccc(-c5cc[nH]n5)c4)ncc3F)CC2)c1 [Example 22, N-((1-(2-(3-(1H-pyrazol-3-yl)phenyl)-5-fluoropyrimidin-4-yl)piperidin-4-yl)methyl)-3-(2-hydroxyethoxy)-5-methoxybenzamide] | 10 to 100 |
| COCCCOc1cc(OC)cc(C(=O)NCC2CCN(c3nc(-c4cccc(-c5cc[nH]n5)c4)ncc3F)CC2)c1 [Example 23A, N-((1-(2-(3-(1H-pyrazol-3-yl)phenyl)-5-fluoropyrimidin-4-yl)piperidin-4-yl)methyl)-3-methoxy-5-(3-methoxypropoxy)benzamide] | 10 to 100 |
| C#CCOc1cc(OC)cc(C(=O)NCC2CCN(c3nc(-c4cccc(-c5cc[nH]n5)c4)ncc3F)CC2)c1 [Example 23C, N-((1-(2-(3-(1H-pyrazol-3-yl)phenyl)-5-fluoropyrimidin-4-yl)piperidin-4-yl)methyl)-3-methoxy-5-(prop-2-ynoxy)benzamide] | 10 to 100 |
| COc1cc(OCC2CC2)cc(C(=O)NCC2CCN(c3nc(-c4cccc(-n5ccnn5)c4)ncc3F)CC2)c1 [Example 28C, N-((1-(2-(3-(1H-1,2,3-triazol-1-yl)phenyl)-5-fluoropyrimidin-4-yl)piperidin-4-yl)methyl)-3-(cyclopropylmethoxy)-5-methoxybenzamide] | 10 to 100 |
| COc1cc(OCC(F)(F)F)cc(C(=O)NCC2CCN(c3ncnc(-c4cccc(C#N)c4)n3)CC2)c1 [Example 30C, N-((1-(4-(3-cyanophenyl)-1,3,5-triazin-2-yl)piperidin-4-yl)methyl)-3-methoxy-5-(2,2,2-trifluoroethoxy)benzamide] | 10 to 100 |
| COc1cc(OCC(F)(F)F)cc(C(=O)NCC2CCN(c3ncnc(-c4cccc(C#N)c4)n3)CC2)c1 [Example 30D, N-((1-(4-(3-cyanophenyl)-1,3,5-triazin-2-yl)piperidin-4-yl)methyl)-3-methoxy-5-(2,2,2-trifluoroethoxy)benzamide] | < 10 |
| COc1cc(OCC2CC2)cc(C(=O)NCC2CCN(c3ccnc(-c4cccc(C(=O)Nc5ccn(C)n5)c4)n3)CC2)c1 [Example 32C, 3-(cyclopropylmethoxy)-5-methoxy-N-((1-(2-(3-(1-methyl-1H-pyrazol-3-ylcarbamoyl)phenyl)pyrimidin-4-yl)piperidin-4-yl)methyl)benzamide] | < 10 |
| COc1cc(OCC2CC2)cc(C(=O)NCC2CCN(c3ccnc(-c4cccc(C(=O)NC(C)(C)C)c4)n3)CC2)c1 [Example 32F, N-((1-(2-(3-(tert-butylcarbamoyl)phenyl)pyrimidin-4-yl)piperidin-4-yl)methyl)-3-(cyclopropylmethoxy)-5-methoxybenzamide] | 10 to 100 |
| COc1cc(OCC2CC2)cc(C(=O)NCC2CCN(c3ncnc(-c4cccc(C(=O)NCC(F)F)c4)n3)CC2)c1 [Example 32G, 3-(cyclopropylmethoxy)-N-((1-(4-(3-(2,2-difluoroethylcarbamoyl)phenyl)-1,3,5-triazin-2-yl)piperidin-4-yl)methyl)-5-methoxybenzamide] | 10 to 100 |
